Results reported in ChEMBL document CHEMBL3758126, “Synthesis of 4-sulfamoylphenyl-benzylamine derivatives with inhibitory activity against human carbonic anhydrase isoforms I, II, IX and XII” (Bioorg Med Chem, 2016).

Key:
[1] = molecular target: Carbonic anhydrase 1 (Homo sapiens, UniProt P00915)
Description: Inhibition of human recombinant carbonic anhydrase 1 preincubated for 15 mins by stopped-flow CO2 hydrase assay

[2] = molecular target: Carbonic anhydrase 12 (Homo sapiens, UniProt O43570)
Description: Inhibition of human recombinant carbonic anhydrase 12 preincubated for 15 mins by stopped-flow CO2 hydrase assay

[3] = molecular target: Carbonic anhydrase 9 (Homo sapiens, UniProt Q16790)
Description: Inhibition of human recombinant carbonic anhydrase 9 preincubated for 15 mins by stopped-flow CO2 hydrase assay

Sequence of Carbonic anhydrase 1 (P00915 whole entry): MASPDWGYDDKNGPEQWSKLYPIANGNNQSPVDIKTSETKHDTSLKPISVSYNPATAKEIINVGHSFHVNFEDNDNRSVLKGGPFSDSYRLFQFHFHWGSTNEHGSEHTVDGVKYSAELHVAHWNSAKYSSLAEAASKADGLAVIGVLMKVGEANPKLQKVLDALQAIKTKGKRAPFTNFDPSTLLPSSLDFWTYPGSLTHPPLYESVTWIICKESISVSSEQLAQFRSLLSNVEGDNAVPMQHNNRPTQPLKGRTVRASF
Sequence of Carbonic anhydrase 12 (O43570 whole entry): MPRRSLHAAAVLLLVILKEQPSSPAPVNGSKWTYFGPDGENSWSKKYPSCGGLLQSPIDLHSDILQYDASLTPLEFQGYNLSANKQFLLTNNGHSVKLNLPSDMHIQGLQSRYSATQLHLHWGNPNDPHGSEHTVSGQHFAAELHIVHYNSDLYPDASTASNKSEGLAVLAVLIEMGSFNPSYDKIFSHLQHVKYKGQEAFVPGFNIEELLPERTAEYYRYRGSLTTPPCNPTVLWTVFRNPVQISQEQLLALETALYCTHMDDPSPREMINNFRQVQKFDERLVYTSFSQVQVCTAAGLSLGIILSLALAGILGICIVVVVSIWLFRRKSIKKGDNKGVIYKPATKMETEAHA

Structure (SMILES) | Ki [1] | Ki [2] | Ki [3]
COc1ccc(CNc2ccc(S(N)(=O)=O)cc2)cc1 | 21.9 nM | 427 nM | 2.2 nM
NS(=O)(=O)c1ccc(NCc2cc(Cl)ccc2O)cc1 | – | – | 2.4 nM
CN(C)c1ccc(/C=N/c2ccc(S(N)(=O)=O)cc2)cc1 | 421 nM | 8.8 nM | 41.5 nM
COc1ccc(/C=N/c2ccc(S(N)(=O)=O)cc2)cc1 | > 50000 nM | 11.2 nM | 883 nM
Cc1ccc(CNc2ccc(S(N)(=O)=O)cc2)cc1 | – | – | 2.1 nM
Cc1cccc(/C=N/c2ccc(S(N)(=O)=O)cc2)c1O | – | – | 465 nM
Cc1cccc(CNc2ccc(S(N)(=O)=O)cc2)c1O | – | – | 2.3 nM
NS(=O)(=O)c1ccc(NCc2cc(Cl)cc(Cl)c2O)cc1 | – | – | 2.2 nM
NS(=O)(=O)c1ccc(NCc2ccccc2O)cc1 | – | – | 2.9 nM
NS(=O)(=O)c1ccc(/N=C/c2cc(Cl)cc(Cl)c2O)cc1 | – | – | 35.6 nM
NS(=O)(=O)c1ccc(/N=C/c2ccc(OCc3ccccc3)cc2)cc1 | > 50000 nM | – | 36 nM
NS(=O)(=O)c1ccc(/N=C/c2cc(Br)ccc2O)cc1 | – | – | 257 nM
NS(=O)(=O)c1ccc(/N=C/c2cc(Br)cc(Br)c2O)cc1 | > 50000 nM | – | 360 nM
NS(=O)(=O)c1ccc(NCc2ccc(OCc3ccccc3)cc2)cc1 | – | – | 2.5 nM
NS(=O)(=O)c1ccc(NCc2cc(Br)cc(Br)c2O)cc1 | – | – | 2.3 nM
NS(=O)(=O)c1ccc(/N=C/c2cc(Cl)ccc2O)cc1 | > 50000 nM | – | 47.9 nM
CN(C)c1ccc(CNc2ccc(S(N)(=O)=O)cc2)cc1 | – | > 50000 nM | 2.4 nM
NS(=O)(=O)c1ccc(/N=C/c2ccccc2O)cc1 | – | – | 952 nM
NS(=O)(=O)c1ccc(/N=C/c2ccccc2)cc1 | > 50000 nM | 11.1 nM | 454 nM
Cc1ccc(/C=N/c2ccc(S(N)(=O)=O)cc2)cc1 | > 50000 nM | 9.9 nM | –
